Where “and” joins values, the source holds several entries; their conditions need not be identical. Identical values can stand only once. Like-named read-outs stand apart in the source and are kept apart here.
Key:
A/WSN/33 M2 N31S virus = type: cell-based, influenza A virus; conditions: for EC50: read-out: EC50 ± SD
[1] = test system: A/WSN/33 virus (with naturally occurring M2 N31); test: microbe, parasite or virus in culture; type: cell-based; conditions: for EC50: read-out: EC50 ± SD
[2] = molecular target: T1, full-length A/Udorn/72 M2 S31N (Influenza A virus, UniProt P0DOF5, S31N)
[3] = molecular target: T1, full-length A/Udorn/72 M2 S31N; conditions: cited from earlier work
[4] = CPE inhibition assay, MDCK cells, amantadine-resistant A/WSN/33 (M2 N31)

For `NC12CC3CC(CC(C3)C1)C2` [Amantadine, amantadine], the EC50 (A/WSN/33 M2 N31S virus) was 250 ± 70 nM and the “EC50 ± SD” value [1, 4] was “not active”.

For `c1csc(-c2cc(CNC34CC5CC(CC(C5)C3)C4)on2)c1` [Compound 6], the “Blockage Eliminated in Wash Out(%)” value [2] was 6.8 ± 1.2%, the Kd [2] was 7500 ± 300 nM and the “Percent Block” value [2] was 99.2% and 99 ± 1%. For the same compound, the kon [2] was 2280 ± 150 M⁻¹ s⁻¹, the IC50 ([3]; read-out: IC50 in TEVC with M2 S31N, previously reported) was 16000 nM and the Kd ([3]; read-out: Kd (literature value, footnote g), footnote to the Kd value, ref [3]) was 16000 nM. The “EC50 ± SD” value (A/WSN/33 M2 N31S virus) was “not active” and the EC50 [1, 4] was 153 nM.

Work on `CCOC(=O)C1=C[C@@H](OC(CC)CC)[C@H](NC(C)=O)[C@@H](N)C1` [Oseltamivir] yielded an EC50 (A/WSN/33 M2 N31S virus) of 30 ± 20 nM and an EC50 ([1]; Influenza A virus, WSN, MDCK) of 10 ± 10 nM.

Reference: article PMC8051587 (ACS chemical biology, 2020)
